One assay has as its system colon 26 cells. In words: Regression of tumor in colon 26 bearing mice in combination with adriamycin. Format: in vivo, mouse (CDF1). The following applies: for reducing tumor weight: in combination with adriamycin. On the procedure:
20 mg of colon 26 cells were transplanted subcutaneously to CDF1 mice (6 weeks old, female) on day 0. On day 6 the diameter of the tumor was measured and groups of 5 mice were selected having equal average tumor size. On day 7 and 14, 10 mg/kg of adriamycin was injected i.v. and the tested compounds were administered p.o. at 0, 8, 24, 32 hours after the injection of adriamycin. Adriamycin was dissolved in saline to a concentration of 2 mg/ml and the compounds in Example 61 and 62 were dissolved in saline to a concentration of 50 mg/ml. The diameter of the tumor was measured each week and tumor weight was estimated as follows: [formula] (L:long diameter, S:short diameter, mm)

Assay [1] deals with Vincristine-resistant mouse P388 leukemia cells. The assay is described as follows: Test of effect on overcoming anti-cancer drug resistance (growth inhibition by vincristine, MTT method). Format: cell-based. On the procedure: Vincristine-resistant mouse P388 leukemia cells were used as an example of resistant cancer cells. RPMI-1640 medium containing 5 μM of 2-mercaptoethanol and 10% fetal calf serum was used for incubation.
The cells were inoculated on a 96-well microplate in 1×10^4 /50 μl/well and 25 μl each of vincristine solution having a specific concentration and an aqeous solution of the test compound (4 μg/ml) was added thereto. After culturing at 37° C. for 2 days, the viable cells were counted by the MTT method and a dose-response curve of vincristine was prepared. Based on the curve, the concentration (IC50) of vincristine producing a 50% inhibition of growth was determined.
In general terms: Formazan colour is commonly taken as a measure of viable cells.

[2] abbreviates: compound dose 250 mg p.o. with adriamycin 10 mg/kg i.v., hydrochloride.
[3] abbreviates: compound dose 500 mg p.o. with adriamycin 10 mg/kg i.v., hydrochloride.

Experimental findings from US5292757A, “1,4-dihydropyridine compounds useful as reverse resistance agents” (Ajinomoto Company, Inc., priority 1991, dated 1994) are described below.

SMILES strings stand for the structures. In brackets after ≈: the same amount, converted by molar mass. Where a name gives a salt, the structure may show the parent alone.

As to `COC(=O)C1=C(C)N(CCCc2ccccc2)C(C)=C(C(=O)OCCCc2cccnc2)C1c1ccc(OC)c(OC)c1` (single isomer, unassigned; (+)) [Example 61, (+)-1,4-dihydro-4-(3,4-dimethoxyphenyl)-2,6-dimethyl-1-(3-phenylpropyl)-3,5-pyridinedicarboxylic acid 3-methyl-5-[3-(3-pyridyl)propyl] ester hydrochloride], the tumor weight came to 2.2 g in the assay with colon 26 cells (setting [2]) and 2 g with colon 26 cells (setting [3]). Further, the reducing tumor weight entry in the assay on colon 26 cells is recorded as “effective in reducing tumor weight in combination with adriamycin”.
Take `CC[C@]1(O)C[C@H]2CN(CCc3c([nH]c4ccccc34)[C@@](C(=O)OC)(c3cc4c(cc3OC)N(C=O)[C@H]3[C@@](O)(C(=O)OC)[C@H](OC(C)=O)[C@]5(CC)C=CCN6CC[C@]43[C@@H]65)C2)C1` [vincristine, reference compound]: the IC50 in assay [1] (Mus musculus, P388, 48 h, read-out: IC50 of vincristine alone) was 0.05 to 0.1 µg/mL (≈ 0.0606 to 0.121 µM).
For `COC(=O)C1=C(C)N(CCCc2ccccc2)C(C)=C(C(=O)OCCCN2CCN(CC(C)C)CC2)C1c1ccc(OC)c(OC)c1` (stereo not drawn) [Example 3, 1,4-dihydro-4-(3,4-dimethoxyphenyl)-2,6-dimethyl-1-(3-phenylpropyl)-3,5-pyridinedicarboxylic acid 3-methyl-5-[3-(4-isobutylpiperazino)propyl]ester], the “IC50 (concentration of vincristine producing a 50% inhibition of growth in the presence of the compound)” value in assay [1] (vincristine IC50, test compound present at 1 μg/ml, 37° C., 2 days, MTT) is 0.0015 µg/mL.
`COc1cccc2c1C(=O)c1c(O)c3c(c(O)c1C2=O)C[C@@](O)(C(=O)CO)C[C@@H]3O[C@H]1C[C@H](N)[C@H](O)[C@H](C)O1` [Adriamycin, reference compound]: in the assay on colon 26 cells (adriamycin 10 mg/kg i.v. alone, no test compound (untreated 4.5 g)), the tumor weight came out at 2.7 g.
With `COC(=O)C1=C(C)N(CCCc2ccccc2)C(C)=C(C(=O)OCCCc2cccnc2)C1c1ccc(OC)c(OC)c1` (single isomer, unassigned; (-)) [Example 62, (-)-1,4-dihydro-4-(3,4-dimethoxyphenyl)-2,6-dimethyl-1-(3-phenylpropyl-3,5-pyridinedicarboxylic acid 3-methyl-5-[3-(3-pyridyl)propyl]ester hydrochloride], the tumor weight in the assay with colon 26 cells (setting [2]) is on record as 1.8 g; in the assay on colon 26 cells (setting [3]), 1.1 g. For the same molecule, the reducing tumor weight entry with colon 26 cells was “effective in reducing tumor weight in combination with adriamycin”.

The IC50 is the point on the concentration scale where inhibition reaches its midpoint.
